Patent EP0309566B1, “STLV-III-RELATED POLYPEPTIDES, DIAGNOSTIC SYSTEMS AND ASSAY METHODS” (JOHNSON AND JOHNSON, priority 1987, dated 1994)

Experiments:
[1] = system: antibodies against HIV-2; assay: ELISA with STLV-III polypeptides p80 and p81, alone and in combination; assay type: binding, human; conditions: two sera containing high titers of antibodies against HIV-2, diluted 1:10; 490nm
Procedure: Preliminary studies using two sera containing high titers of antibodies against HIV-2 were performed by ELISA using each of p80 and p81 alone and in combination. One hundred microliters (ul) of 0.01M NaHCO₃, pH 9.6, containing 1 microgram (ug) of either p80 or p81 or a combination (admixture) of 1 ug of p80 and 1 ug of p81 were admixed into the wells of Immunolon II microtiter plates (Dynatech, Alexandria, VA). The plates were then maintained for about 16 hours at 4 degrees C to permit the polypeptides to adsorb onto (coat) the walls of the wells. After removing the polypeptide coating solution by shaking, 300 ul of PBS containing 1% bovine serum albumin (BSA), 5mM benzamidine, 10 kilounits Aprotinin, 10ug/ml Trypsin Inhibitor, 10mM EACA, 0.5mM PMSF, 2mM EDTA and 10% glycerol were admixed into each well to block excess protein binding sites. […]
Two hundred ul of OPD substrate were then admixed into each well to form a developing-reaction admixture. After maintaining the developing-reaction admixture for 30 minutes at about 20 degrees C, 50 ul of 4N H₂SO₄ were admixed into each well to stop the developing-reaction, and the resulting solutions were assayed for absorbance at 490nm using a microtiter plate reader.

[2] = system: sera from Swedish blood donors negative for HIV-1 and HIV-2 antibodies; assay: Specificity ELISA (Example 12, Figure 3), negative control sera; assay type: binding, human; conditions: 20 negative control sera; positive O.D. above 0.150
Excerpt: In the Figures forming a portion of the disclosure of this invention: • Figure 1 illustrates a portion of the STLV-IIImac TMP amino acid residue sequence. The sequence is shown from left to right and in the direction of amino-terminus to carboxy-terminus in a single-letter code. The residue positions have been numbered as illustrated from 1-33. • Figure 2 illustrates, in a manner similar to Figure 1, a portion of the amino acid residue sequence of the HIV-1 TMP and represent gp41 amino acid residues […] as described in Ratner et al., Nature, 313:277-283 (1985). However, for ease of discussion, those residue positions have been renumbered as illustrated from 1-32. • Figure 3 contains 2 panels illustrating antibody determinations using a diagnostic system of this invention to assay (a) 20 sera from individuals in Guinea-Bissau previously determined to have antibodies against HIV-related viruses (West Africans), (b) 20 sera from HIV-1-infected individuals and (c) 20 sera from blood donors without antibodies to HIV-1 or HIV-2. Sera were considered positive (closed symbols) when they produced optical density (O.D.) values above 0.150 (the mean O.D. of negative samples plus 6 standard deviations). Negative sera are represented by open symbols. […]

[3] = system: 24 sera; assay: Comparison of peptide p80 based and peptide p81 based ELISA, 24 sera; assay type: binding; conditions: for Ratio p80:p81: absorbance value ratio
Excerpt: The absorbance values obtained for each of 24 sera in a peptide p80 based ELISA were divided by those obtained in a peptide p81 based ELISA. The resulting absorbance value ratios are shown in ranked order in Table 14.

## AIEKYLEDQAQLNAWCAFRQVC [p80]
[1]
  absorbance values: greater than 1.1
[2]
  immunoreaction with sera: did not produce any substantial immunoreaction
[3]; Serum No. 3541
  absorbance value: 0.181
  Ratio p80:p81: 7.240
[3]; Serum No. 3616
  absorbance value: 0.686
  Ratio p80:p81: 14.600
[3]; Serum No. 3743
  absorbance value: 0.257
  Ratio p80:p81: 6.425
[3]; Serum No. 3923
  absorbance value: 0.180
  Ratio p80:p81: 2.687
[3]; Serum No. 3942
  absorbance value: 0.588
  Ratio p80:p81: 11.530
[3]; Serum No. 5160
  absorbance value: 0.251
  Ratio p80:p81: 1.064
[3]; Serum No. 5182
  absorbance value: 0.162
  Ratio p80:p81: 1.588
[3]; Serum No. 5727
  absorbance value: 0.504
  Ratio p80:p81: 0.895
[3]; Serum No. 5740
  absorbance value: 2.000
  Ratio p80:p81: 46.510
[3]; Serum No. 6598
  absorbance value: 0.072
  Ratio p80:p81: 0.351
[3]; Serum No. 6599
  absorbance value: 0.206
  Ratio p80:p81: 0.888
[3]; Serum No. 6600
  absorbance value: 0.359
  Ratio p80:p81: 1.173
[3]; Serum No. 6601
  absorbance value: 0.353
  Ratio p80:p81: 2.558
[3]; Serum No. 6602
  absorbance value: 0.516
  Ratio p80:p81: 516.000
[3]; Serum No. 6603
  absorbance value: 1.152
  Ratio p80:p81: 2.736
[3]; Serum No. 6604
  absorbance value: 1.808
  Ratio p80:p81: 4.520
[3]; Serum No. 6631
  absorbance value: 0.153
  Ratio p80:p81: 0.537
[3]; Serum No. 6650
  absorbance value: 0.700
  Ratio p80:p81: 20.590
[3]; Serum No. 6661
  absorbance value: 0.647
  Ratio p80:p81: 4.044
[3]; Serum No. 6665
  absorbance value: 0.254
  Ratio p80:p81: 4.792
[3]; Serum No. 6674
  absorbance value: 2.000
  Ratio p80:p81: 7.752
[3]; Serum No. 6683
  absorbance value: 0.387
  Ratio p80:p81: 0.791
[3]; Serum No. 6698
  absorbance value: 2.000
  Ratio p80:p81: 90.910
[3]; Serum No. 6877
  absorbance value: 0.248
  Ratio p80:p81: 31.000
